Series [1] relates to HEK-293T-ACE2^h cells. Briefly: MTT cytotoxicity assay on host cells (4 h). Format: cell-based, human. Particulars: MTT, 4 h. (In general: Tetrazolium assays rely on reduction of a dye to a coloured formazan, in cell work by metabolically active cells.)
The target of series [2] is SARS-CoV-2 spike RBD protein (Severe acute respiratory syndrome coronavirus 2, UniProt P0DTC2). As to the kind of experiment: biochemical. Format: binding.
Series [3] deals with Beas-2B cells. As to the kind of experiment: MTT cytotoxicity on human normal cell line Beas-2B (24 h). The class given is cell-based. Particulars: Homo sapiens, BEAS-2B, 24 h, read-out: IC50 Values of Human Normal Cell Lines, Beas-2B.
Series [4] concerns LO2 cells. Briefly: MTT cytotoxicity on human normal cell line LO2 (24 h). The class given is cell-based. Conditions: Homo sapiens, L02, 24 h, read-out: IC50 Values of Human Normal Cell Lines, LO2.
For series [5], the system named is HEK 293 cells. As to the kind of experiment: MTT cytotoxicity on human normal cell line HEK 293 (24 h). The class given is cell-based. Conditions: Homo sapiens, HEK293, 24 h, read-out: IC50 Values of Human Normal Cell Lines, HEK 293.
For series [6], the system named is SARS-CoV-2 pseudovirus.
Series [7] deals with SARS-CoV-2 pseudovirus. As to the kind of experiment: microbe, parasite or virus in culture. Conditions: Severe acute respiratory syndrome-related coronavirus, read-out: IC50 (inhibition of pseudovirus entry into host cells).

Consider 2 compounds from paper PMC9862759 (Viruses, 2023).

Read-outs that look alike come from different tables or passages of the source.

One may read the Kd as the free concentration of one partner at which half of the binding sites on the other are occupied at equilibrium, for simple one-to-one binding. Lower therefore signals higher affinity. The term IC50 denotes the concentration that gives 50% inhibition. `O=c1c(O)c(-c2ccc(O)cc2)oc2cc(O)cc(O)c12` [compound 14, Kaempferol]: in series [1], the “CC0 (maximum nontoxic concentration)” value came to 200 µM. In addition, in series [1], the “TC50 (concentration reducing cell viability by 50%)” value is over 200 µM. Binding in series [2] was characterised by a dissociation constant (Kd) of 18.5 ± 5.49 µM. For the same compound, the half-inhibitory concentration (IC50) is over 200 µM in series [3]; over 200 µM in series [4]; over 200 µM in series [5]; 34.6 ± 7.69 µM in series [6] (read-out: IC50 (inhibition of pseudovirus entry into host cells)); under 50 µM in series [7]. Moreover, the “SI (ratio of TC50 to IC50)” value in series [6] is reported as over 5.77.
`O=c1c(O)c(-c2ccc(O)c(O)c2)oc2cc(O)cc(O)c12` [compound 15, Quercetin]: the “CC0 (maximum nontoxic concentration)” value in series [1] is 300 µM. Further, the “TC50 (concentration reducing cell viability by 50%)” value in series [1] was over 500 µM. Besides, in series [2], the Kd was determined as 11.2 ± 3.85 µM. Besides, the IC50 in series [3], in series [4] and in series [5] was over 500 µM each time.
